Experimental data published in PubChem BioAssay AID2305 (GlaxoSmithKline (GSK), 2010).
pIC50: −log10 of the molar value.

tested on: P. falciparum 3D7 growth, pLDH absorbance; assay: blood-stage malaria parasite growth potency – strain 3D7, dose response (AID 2305)

Compound | pIC50
CN(Cc1cc(C(F)(F)F)cc(C(F)(F)F)c1)C(=O)[C@H]1CNC[C@@H]1c1ccc(F)cc1 | 6.08
CNC(=O)C1Cc2c([nH]c3ccc(Br)cc23)C2(CCN(CCc3ccccc3)CC2)N1 (stereo unspecified) | 6.04
CCn1cc(C=C2Oc3c(ccc(O)c3CN3CCCCC3)C2=O)c2ccccc21 | 6.55
Nc1nc(N)c2c(Cl)c(N(Cc3ccccc3)Cc3ccccc3)ccc2n1 | 6.72
Nc1ncc(-c2ccccc2)cc1-c1nc2cc(Cl)c(F)cc2[nH]1 | 6.59
Cc1cccc(C(=O)Nc2ccnc(N3CCC(N(C)Cc4ccc(C#N)cc4)CC3)c2)c1 | 6.04
Cc1[nH]nc2ccc(-c3ccc4nccc(N5CCC(N)CC5)c4c3)cc12 | 6.23
O=C(NC1CCN(CCN2CCC(c3ccccc3C(F)(F)F)CC2)CC1)c1ccc(-c2ccc(Cl)cc2)cc1 | 6.15
Oc1ccc(CCNc2nc(NCCCOc3cc(CN4CCCCC4)ccc3F)nc(N3CCNCC3)n2)cc1 | 5.75
Clc1cc(Nc2ccnc3ccc(Br)cc23)ccc1Oc1ccc(Cl)c2ccccc12 | 6.20
COc1cc2ncnc(Nc3ccc(OCc4ccccc4Br)c(Cl)c3)c2cc1OC | 5.89
CCc1ccc(NC(=O)c2ccc(CN3CCCN(CC4CCCCC4)CC3)cc2)cc1 | 6.15
Cc1cc(=O)c(-c2ccc(Oc3ccc(C(F)(F)F)cc3)cc2)c(C)n1O | 6.22
Cc1cccc2[nH]c(-c3ccc(-c4ccc(CN5CCN(CC6CCCN(C)C6)CC5)cc4)cc3)nc12 (stereo unspecified) | 6.85
Cc1ccc(-c2nc(N3CCN(C(=O)c4ccco4)CC3)c3ccccc3n2)cc1 | 6.01
O=C(NCCc1ccc(F)cc1)c1ccc(N2CCN(c3ccncc3)CC2)nc1 | 5.85
Cc1cc(N2CCC(NS(=O)(=O)c3cccc4cccnc34)CC2)nc(Nc2cccc(C#N)c2)n1 | 6.12
CCOc1cc(Br)c(C(C)NC(=O)c2cccc(OC)c2)cc1OCC (stereo unspecified) | 6.77
O=S(=O)(ON=C1CCc2ccccc21)c1ccc(Cl)cc1 | 5.88
O=C(NCc1ccc(C(=O)N2CCC(N3CCCCC3)CC2)cc1)c1cc(-c2cccc(C(F)(F)F)c2)ccc1O | 6.09
O=c1cc(NCCCNCc2ccc(Cl)c(Cl)c2)[nH]c2ccc(Oc3ccccc3)cc12 | 6.07
CCCc1cc(C(=O)N[C@@H](Cc2ccccc2)[C@H](O)CNC(C)(C)c2cccc(OC)c2)c(F)c(N2CCCC2=O)c1 | 7.00
CCOC(=O)C(NC(=O)c1ccc([N+](=O)[O-])o1)C(C)C (stereo unspecified) | 5.97
Cc1nc2nc(N)nc(N)c2c(C)c1Cc1ccc(C(F)(F)F)cc1 | 6.12

Compound | pIC50
O=C(NC1CCN(Cc2ccc(O)cc2)CC1)c1ccc(Cl)c(Cl)c1 | 5.93
CCN(CCC1(c2ccc(Cl)c(Cl)c2)CN(C(=O)c2cc(OC)c(OC)c(OC)c2)CCO1)[C@@H]1C[C@@H]2c3ccccc3C[C@@H]21 (stereo partly specified) | 6.37
Cc1onc(-c2ccccc2)c1C(=O)Nc1nc(-c2ccccn2)nc2ccsc12 | 6.16
O=C(Nc1cccc(-c2cccc(-c3nc4ccc(C(F)(F)F)cc4[nH]3)c2)c1)Nc1ccc(F)c(F)c1F | 6.92
CNC(=O)c1ccc2[nH]cc(C3CCN(CC4CCC(NC(=O)/C=C/c5ccccc5Cl)CC4)CC3)c2c1 (stereo unspecified) | 6.08
CC(C)n1ncc2c(C(=O)N3CCCc4ccccc43)cc(-c3ccccc3)nc21 | 6.22
COC(=O)c1ccc(CC(C)NCC(O)c2ccc(F)c(Cl)c2)cc1 (stereo unspecified) | 6.07
c1cc(CN2CCC(CCN3CCCCC3)CC2)cc(-c2cccc(-c3nc4ccccc4[nH]3)c2)c1 | 6.85
CCn1ncc2c(N3CCCC3=O)cc(C(=O)N[C@@H](Cc3ccccc3)[C@H](O)CNC(C)(C)c3cccc(C(F)(F)F)c3)cc21 | 6.82
O=C(Nc1ccc2c(c1)CCN2C1CCN(Cc2csc3ccccc23)C1)c1ccco1 (stereo unspecified) | 6.49
CC1CN(c2cc(=O)n(Cc3cccc(NC(=O)Nc4ccc(-c5ccccc5)cc4)c3)cn2)CC(C)N1 (stereo unspecified) | 6.40
CCCCCCCN1CC[C@@H](CCCc2ccnc3ccc(OCCN4CCNCC4)cc23)[C@@H](CC)C1 | 6.11
Nc1nccc2ccc(OC3CCCCC3)cc12 | 6.22
O=C(Nc1cccc(-c2cccc(-c3nc4ccc(F)cc4[nH]3)c2)c1)c1cnc[nH]1 | 6.34
COCn1ncc2cc(-c3cccc(NC(=O)c4csc(NC(C)=O)n4)c3)ccc21 | 6.00
COc1ccc(CC(C)NCC(O)c2cccc(Cl)c2F)cc1 (stereo unspecified) | 5.97
Cc1ccc(O)cc1Nc1ccnc2cc(-c3ccncc3)ccc12 | 6.14
NCC1CCCN1Cc1ccc(-c2ccc(-c3nc4ccccc4[nH]3)s2)cc1 (stereo unspecified) | 6.03
CC(=NNC(=S)NCCc1ccccc1)c1ccccn1 | 6.66
NC1=NC2(CCCCC2)N(OCCCCCCN2C(=O)c3ccccc3C2=O)C(N)=N1 | 6.06
Nc1nc2c(c(=O)[nH]1)CN(S(=O)(=O)c1ccc(C(=O)N[C@@H](CCC(=O)O)C(=O)O)cc1)CC2 | 6.82
Cn1ccc(C(=O)Nc2ccc3c(c2)CN(Cc2ccc(N4CCCC4)o2)CCC3)n1 | 5.88
CC(=O)N(C)c1cccc(C(=O)Nc2ccc(-c3cccc(-c4nc5c(C)cccc5[nH]4)c3)cc2)c1 | 6.19
COc1ccc(C(=O)Nc2nonc2-c2ccc(OC)c(OC)c2)cc1Cl | 6.17

Compound | pIC50
CC1CCN(c2nc(C(=O)Nc3ccc(F)cc3C(F)(F)F)c(C(C)C)s2)CC1 | 6.64
c1cncc(-c2cc(N3CCc4ccccc4C3)nc(-c3ccncc3)n2)c1 | 7.40
CS(=O)(=O)CCNc1nccc(N2CCc3ncnc(Nc4ccc(OCc5cccc(F)c5)c(Cl)c4)c3C2)n1 | 6.89
CCOCCCn1c(=N)c(C(=O)NCc2ccc(F)cc2)cc2c(=O)n3cccc(C)c3nc21 | 6.28
O=C(N[C@@H](CC1CCCCC1)C(=O)NC1CCCCC1)c1ccc(O)c(-c2cccc(C(F)(F)F)c2)c1 | 6.12
COc1ccc(CCNCCCCCCNCCc2ccc(Cl)cc2)c(Cl)c1OC | 6.08
CC1(C)N=C(N)N=C(N)C1c1ccc(Cl)cc1 (stereo unspecified) | 6.59
Cc1cc(C)cc(Oc2c(C(F)(F)F)oc3c(CN4CC(C)OC(C)C4)c(O)ccc3c2=O)c1 (stereo unspecified) | 6.03
O=C(c1ccc([N+](=O)[O-])o1)N1CCN(c2nc3c(F)cc(F)cc3s2)CC1 | 6.01
CCc1c(C)c2ccc3c(c2oc1=O)CN(CCc1ccc(F)cc1)CO3 | 5.91
C[C@H](NCCC1CCC(NC(=O)N[C@H](C)C(O)(c2ccccc2)c2ccccc2)CC1)c1cccc2ccccc12 (stereo partly specified) | 5.96
Cc1ccc(C(=O)Nc2cccc(CN3CCCN(Cc4ccc(O)cc4)CC3)c2)cc1 | 5.96
COCCNCC(O)Cn1c2ccc(Cl)cc2c2cc(Cl)ccc21 (stereo unspecified) | 7.30
CCCc1cc(OC)c(CC2c3cc(O)c(Cl)cc3C(c3ccccc3)CN2C)cc1OC (stereo unspecified) | 6.37
O=C(NCCN1CCCC1)N1CCCN(c2ncnc3cc(-c4ccc(Cl)cc4)sc23)CC1 | 6.04
O=C(c1ccc(Cl)cc1Cl)N1CCCC(C(F)(F)F)C1 (stereo unspecified) | 6.02
COc1ccc(-c2cc3nc4c(c(NCCCn5ccnc5)n3n2)CCCC4)cc1 | 6.14
COc1ccc(CNCc2ccsc2)cc1-c1ccc(S(=O)(=O)NCCN2CCCC2)s1 | 6.11
COCCNC(=O)C(CNC(=O)c1ccc2c(c1)OCO2)NC(=O)c1ccc(-c2ccccc2)cc1 (stereo unspecified) | 6.01
COCc1cccc(-c2cc(-c3ccc(S(C)(=O)=O)cc3)cnc2N)c1 | 6.00
Cc1c(S(=O)(=O)Nc2cccc(CCN3CCCCC3CCN3CCCC3)c2)sc2ccc(Cl)cc12 (stereo unspecified) | 6.03
Cc1ccc(F)cc1S(=O)(=O)Nc1cccc(CCN2CCC(N3CCCCC3)CC2)c1 | 5.95
CC(C)CNC(=O)c1ccnc(-c2ccc(CNC3Cc4ccccc4C3)cc2)c1 | 6.10
